# Test system: patients with cGVHD
# Conditions: Cohort 1 200 mg QD
smiles,measurement,value
"CC(C)NC(=O)COc1cccc(-c2nc(Nc3ccc4[nH]ncc4c3)c3ccccc3n2)c1 [Belumosudil, 2-{3-[4-(1H-indazol-5-ylamino)-2-quinazolinyl]phenoxy}-N-(propan-2-yl) acetamide]","Grade ≥3 Lung infection or pneumonia, No. (%)",1 (6)
same,Graft versus host disease in gastrointestinal tract: # Events,1
same,Graft versus host disease in gastrointestinal tract: Affected/At Risk (%),1/17 (5.88%)
same,Gynaecomastia: # Events,0
same,Gynaecomastia: Affected/At Risk (%),0/17 (0%)
same,Haematuria: # Events,1
same,Haematuria: Affected/At Risk (%),1/17 (5.88%)
same,Hair growth abnormal: # Events,1
same,Hair growth abnormal: Affected/At Risk (%),1/17 (5.88%)
same,Headache: # Events,4
same,Headache: Affected/At Risk (%),4/17 (23.53%)
same,Hodgkin's disease recurrent: # Events,1
same,Hodgkin's disease recurrent: Affected/At Risk (%),1/17 (5.88%)
same,Hordeolum: # Events,1
same,Hordeolum: Affected/At Risk (%),1/17 (5.88%)
same,Hot flush: # Events,1
same,Hot flush: Affected/At Risk (%),1/17 (5.88%)
same,Hyperglycemia: # Events,2
same,Hyperglycemia: Affected/At Risk (%),2/17 (11.76%)
same,Hyperhidrosis: # Events,0
same,Hyperhidrosis: Affected/At Risk (%),0/17 (0%)
same,Hyperkalaemia: # Events,7
same,Hyperkalaemia: Affected/At Risk (%),3/17 (17.65%)
same,Hypertension: # Events,8
same,Hypertension: Affected/At Risk (%),5/17 (29.41%)
same,Hyperthyroidism: # Events,0
same,Hyperthyroidism: Affected/At Risk (%),0/17 (0%)
same,Hypertriglyceridaemia: # Events,0
same,Hypertriglyceridaemia: Affected/At Risk (%),0/17 (0%)
same,Hyperuricaemia: # Events,6
same,Hyperuricaemia: Affected/At Risk (%),1/17 (5.88%)
same,Hypoaesthesia: # Events,2
same,Hypoaesthesia: Affected/At Risk (%),1/17 (5.88%)
same,Hypocalcaemia: # Events,0
same,Hypocalcaemia: Affected/At Risk (%),0/17 (0%)
same,Hypogonadism: # Events,1
same,Hypogonadism: Affected/At Risk (%),1/17 (5.88%)
same,Hypokalaemia: # Events,1
same,Hypokalaemia: Affected/At Risk (%),1/17 (5.88%)
same,Hypomagnesaemia: # Events,1
same,Hypomagnesaemia: Affected/At Risk (%),1/17 (5.88%)
same,Hyponatraemia: # Events,1
same,Hyponatraemia: Affected/At Risk (%),1/17 (5.88%)
same,Hypophosphataemia: # Events,1
same,Hypophosphataemia: Affected/At Risk (%),1/17 (5.88%)
same,Hypothermia: # Events,0
same,Hypothermia: Affected/At Risk (%),0/17 (0%)
same,Hypothyroidism: # Events,2
same,Hypothyroidism: Affected/At Risk (%),1/17 (5.88%)
same,Hypoxia: # Events,1
same,Hypoxia: Affected/At Risk (%),1/17 (5.88%)
same,Impaired healing: # Events,1
same,Impaired healing: Affected/At Risk (%),1/17 (5.88%)
same,Influenza like illness: # Events,1
same,Influenza like illness: Affected/At Risk (%),1/17 (5.88%)
same,Influenza: # Events,2
same,Influenza: Affected/At Risk (%),2/17 (11.76%)
same,Insomnia: # Events,0
same,Insomnia: Affected/At Risk (%),0/17 (0%)
same,Irritability: # Events,1
same,Irritability: Affected/At Risk (%),1/17 (5.88%)
same,Joint range of motion decreased: # Events,0
same,Joint range of motion decreased: Affected/At Risk (%),0/17 (0%)
same,Lacrimation increased: # Events,0
same,Lacrimation increased: Affected/At Risk (%),0/17 (0%)
same,Leukaemia recurrent: # Events,1
same,Leukaemia recurrent: Affected/At Risk (%),1/17 (5.88%)
same,Leukocytosis: # Events,1
same,Leukocytosis: Affected/At Risk (%),1/17 (5.88%)
same,Ligament sprain: # Events,1
same,Ligament sprain: Affected/At Risk (%),1/17 (5.88%)
same,Limb injury: # Events,1
same,Limb injury: Affected/At Risk (%),1/17 (5.88%)
same,Macular degeneration: # Events,0
same,Macular degeneration: Affected/At Risk (%),0/17 (0%)
same,Migraine: # Events,0
same,Migraine: Affected/At Risk (%),0/17 (0%)
same,Muscle spasms: # Events,1
same,Muscle spasms: Affected/At Risk (%),1/17 (5.88%)
same,Muscle spasticity: # Events,1
same,Muscle spasticity: Affected/At Risk (%),1/17 (5.88%)
same,Muscular weakness: # Events,6
same,Muscular weakness: Affected/At Risk (%),4/17 (23.53%)
same,Musculoskeletal chest pain: # Events,1
same,Musculoskeletal chest pain: Affected/At Risk (%),1/17 (5.88%)
same,Myalgia: # Events,2
same,Myalgia: Affected/At Risk (%),1/17 (5.88%)
same,Nail disorder: # Events,1
same,Nail disorder: Affected/At Risk (%),1/17 (5.88%)
same,Nasal congestion: # Events,3
same,Nasal congestion: Affected/At Risk (%),3/17 (17.65%)
same,Nausea: # Events,10
same,Nausea: Affected/At Risk (%),6/17 (35.29%)
same,Neck pain: # Events,1
same,Neck pain: Affected/At Risk (%),1/17 (5.88%)
same,Nephrotic syndrome: # Events,1
same,Nephrotic syndrome: Affected/At Risk (%),1/17 (5.88%)
same,Neuropathy peripheral: # Events,0
same,Neuropathy peripheral: Affected/At Risk (%),0/17 (0%)
same,Neutrophil count decreased: # Events,1
same,Neutrophil count decreased: Affected/At Risk (%),1/17 (5.88%)
same,Nocturia: # Events,1
same,Nocturia: Affected/At Risk (%),1/17 (5.88%)
same,Non-cardiac chest pain: # Events,0
same,Non-cardiac chest pain: Affected/At Risk (%),0/17 (0%)
same,Obesity: # Events,2
same,Obesity: Affected/At Risk (%),2/17 (11.76%)
same,Oedema peripheral: # Events,3
same,Oedema peripheral: Affected/At Risk (%),3/17 (17.65%)
same,Oedema: # Events,0
same,Oedema: Affected/At Risk (%),0/17 (0%)
same,Oesophageal ulcer: # Events,0
same,Oesophageal ulcer: Affected/At Risk (%),0/17 (0%)
same,Oral candidiasis: # Events,3
same,Oral candidiasis: Affected/At Risk (%),2/17 (11.76%)
same,Oropharyngeal pain: # Events,1
same,Oropharyngeal pain: Affected/At Risk (%),1/17 (5.88%)
same,Orthopnoea: # Events,1
same,Orthopnoea: Affected/At Risk (%),1/17 (5.88%)
same,Osteonecrosis: # Events,1
same,Osteonecrosis: Affected/At Risk (%),1/17 (5.88%)
same,Osteopenia: # Events,0
same,Osteopenia: Affected/At Risk (%),0/17 (0%)
same,Osteoporosis: # Events,0
same,Osteoporosis: Affected/At Risk (%),0/17 (0%)
same,Overdose: # Events,1
same,Overdose: Affected/At Risk (%),1/17 (5.88%)
same,Pain in extremity: # Events,2
same,Pain in extremity: Affected/At Risk (%),2/17 (11.76%)
same,Pain: # Events,3
same,Pain: Affected/At Risk (%),3/17 (17.65%)
same,Palpitations: # Events,1
same,Palpitations: Affected/At Risk (%),1/17 (5.88%)
same,Paraesthesia: # Events,0
same,Paraesthesia: Affected/At Risk (%),0/17 (0%)
same,Pericardial effusion: # Events,1
same,Pericardial effusion: Affected/At Risk (%),1/17 (5.88%)
same,Peripheral coldness: # Events,1
same,Peripheral coldness: Affected/At Risk (%),1/17 (5.88%)
same,Peripheral sensory neuropathy: # Events,0
same,Peripheral sensory neuropathy: Affected/At Risk (%),0/17 (0%)
same,Phlebitis: # Events,0
same,Phlebitis: Affected/At Risk (%),0/17 (0%)
same,Photophobia: # Events,0
same,Photophobia: Affected/At Risk (%),0/17 (0%)
same,Platelet count decreased: # Events,3
same,Platelet count decreased: Affected/At Risk (%),1/17 (5.88%)
same,Pleural effusion: # Events,1
same,Pleural effusion: Affected/At Risk (%),1/17 (5.88%)
same,Pneumonia respiratory syncytial viral: # Events,0
same,Pneumonia respiratory syncytial viral: Affected/At Risk (%),0/17 (0%)
same,Pneumonia: # Events,2
same,Pneumonia: Affected/At Risk (%),1/17 (5.88%)
same,Pollakiuria: # Events,1
same,Pollakiuria: Affected/At Risk (%),1/17 (5.88%)
same,Presyncope: # Events,0
same,Presyncope: Affected/At Risk (%),0/17 (0%)
same,Productive cough: # Events,2
same,Productive cough: Affected/At Risk (%),2/17 (11.76%)
same,Proteinuria: # Events,2
same,Proteinuria: Affected/At Risk (%),2/17 (11.76%)
same,Pruritus: # Events,1
same,Pruritus: Affected/At Risk (%),1/17 (5.88%)
same,Pseudomonas infection: # Events,1
same,Pseudomonas infection: Affected/At Risk (%),1/17 (5.88%)
same,Pulmonary mass: # Events,0
same,Pulmonary mass: Affected/At Risk (%),0/17 (0%)
same,Pyrexia: # Events,3
same,Pyrexia: Affected/At Risk (%),1/17 (5.88%)

# From US20260027116A1, “Methods of Treating Chronic Graft-Versus-Host Disease Following Allogeneic Hematopoietic Stem Cell Transplantation” (Kadmon Corporation, LLC, priority 2022, published 2026)
